Experimental data: US20150111934A1, “CRYSTALLINE FORMS OF AN ADRENERGIC AGONIST” (DIPHARMA FRANCIS S.R.L., priority 2013, published 2015)

How the values were obtained:
[1] = cited from earlier work; for physical stability of the crystalline form: prior art forms of U.S. Pat. No. 7,342,117
[2] = solubility in water
[3] = physchem; details: 25 °C, water

Compound: Cl.Cl.Nc1nc(CC(=O)Nc2ccc(CCNCC(O)c3ccccc3)cc2)cs1 (stereo not drawn)
- hygroscopicity and stability of the crystalline salt ([1]; as demonstrated in U.S. Pat. No. 7,342,117): highly hygroscopic and unstable

Compound: Nc1nc(CC(=O)Nc2ccc(CCNC[C@H](O)c3ccccc3)cc2)cs1 [Crystalline form α of Mirabegron, (R)-2-(2-Aminothiazol-4-yl)-4′-[2-[(2-hydroxy-2-phenylethyl)amino]ethyl]acetanilide]
- physical stability of the crystalline form [1]: stable solid form
- solubility in water (in words) [2]: practically insoluble in water

Compound: CC(=O)O.Nc1nc(CC(=O)Nc2ccc(CCNC[C@H](O)c3ccccc3)cc2)cs1 [Mirabegron acetate salt, 2-(2-amino-1,3-thiazol-4-yl)-N-[4-(2-{[(2R)-2-hydroxy-2-phenylethyl]amino}ethyl)phenyl]acetamide acetate salt]
- solubility [3]: ~100 mg/mL

Compound: Nc1nc(CC(=O)Nc2ccc(CCNC[C@H](O)c3ccccc3)cc2)cs1 [Mirabegron base, (R)-2-(2-Aminothiazol-4-yl)-4′-[2-[(2-hydroxy-2-phenylethyl)amino]ethyl]acetanilide]
- solubility in water (in words) [2]: almost wholly insoluble in water

Compound: Nc1nc(CC(=O)Nc2ccc(CCNC[C@H](O)c3ccccc3)cc2)cs1 [form β, (R)-2-(2-Aminothiazol-4-yl)-4′-[2-[(2-hydroxy-2-phenylethyl)amino]ethyl]acetanilide]
- physical stability of the crystalline form [1]: metastable polymorph
